According to ChEMBL document CHEMBL1151216, “New constituents of Artemisia monosperma” (2004):

Assays:
Staphylococcus aureus [1] = experiment: Antibacterial activity against multidrug-resistant Staphylococcus aureus; type: functional
Staphylococcus aureus [2] = experiment: Antibacterial activity against methicillin-resistant Staphylococcus aureus; type: functional

Compound | MIC (Staphylococcus aureus [1]) | MIC (Staphylococcus aureus [2])
C=C[C@@H](O)C#CC#C[C@H](O)CCO | > 128 µg/mL | > 128 µg/mL
CC1=C2[C@H](O)[C@H](C(C)C)CC[C@@]2(C)[C@H](O)C[C@H]1O (relative stereo) | > 128 µg/mL | > 128 µg/mL
